From publication PMC9953004, “Scandium-44 Radiolabeled Peptide and Peptidomimetic Conjugates Targeting Neuropilin-1 Co-Receptor as Potential Tools for Cancer Diagnosis and Anti-Angiogenic Therapy” (Biomedicines, 2023)
Where a SMILES comes first, the peptide text is derived from it. Where no end group is shown, it is not given here. Side-chain parts run from the residue outwards. [ ]: non-standard residue; d: D form. The star is where a group is joined. DOTA = O=C(O)CN1CCN(CC(=O)O)CCN(CC(=O)*)CCN(CC(=O)O)CC1; hArg = N=C(N)NCCCC[C@H](N)C(=O)O; Dab = NCC[C@H](N)C(=O)O; Ahx = NCCCCCC(=O)O

Assays:
VEGF-A165/NRP-1 complex = molecular target: T1, VEGF-A165/NRP-1 complex (Homo sapiens, UniProt O14786); test: Competitive NRP-1-binding inhibition assay (competitive ELISA, bt-VEGF-A165 vs coated NRP-1); details: for IC50 / logIC50 ± SD: inhibition of VEGF-A165/NRP-1 complex formation, mean ± SD, n = 3; for binding affinity for NRP-1: summary of competitive ELISA results
T1 construct: purchased BioLegend (NRP-1); Abcam (bt-VEGF-A165)
T1 sequence (O14786 22-641 limits assumed): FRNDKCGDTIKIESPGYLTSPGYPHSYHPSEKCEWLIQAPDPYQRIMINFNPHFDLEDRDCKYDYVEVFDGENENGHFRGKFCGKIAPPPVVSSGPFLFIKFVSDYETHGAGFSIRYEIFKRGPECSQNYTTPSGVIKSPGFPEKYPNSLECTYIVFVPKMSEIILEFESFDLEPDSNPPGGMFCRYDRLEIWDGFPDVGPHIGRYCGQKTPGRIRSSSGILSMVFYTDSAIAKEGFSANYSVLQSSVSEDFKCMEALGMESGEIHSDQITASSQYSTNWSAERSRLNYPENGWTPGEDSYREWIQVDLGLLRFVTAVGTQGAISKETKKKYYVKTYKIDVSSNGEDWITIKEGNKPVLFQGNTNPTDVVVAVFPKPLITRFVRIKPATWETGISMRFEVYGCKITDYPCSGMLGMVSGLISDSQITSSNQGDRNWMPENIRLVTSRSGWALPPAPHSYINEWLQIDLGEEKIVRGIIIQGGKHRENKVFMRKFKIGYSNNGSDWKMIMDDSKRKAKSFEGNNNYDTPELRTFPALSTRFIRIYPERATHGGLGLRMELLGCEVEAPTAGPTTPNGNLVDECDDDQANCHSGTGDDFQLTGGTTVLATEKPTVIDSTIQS
Method: The study of biological activity (inhibition of VEGF-A165/NRP-1 binding) of Sc-1, Sc-1bis, Sc-2, Sc-3 and Ga-3 compounds was tested by competitive ELISA test. The method used was similar to the one previously described. Briefly, the first step was to coat the bottom surface of a 96-well plate using 100 µL (200 ng/well) of recombinant human NRP-1 and incubate overnight at 4 °C. Nonspecific binding was blocked with 0.5% BSA (bovine serum albumin) in PBS. Following this, 50 µL of the solution of tested compound in PBS, in the selected concentrations (100 [µM], 50 [µM], 25 [µM], 12.5 [µM] and […]), and 50 µL (400 ng/mL) of human (bt)-VEGF-A165 in PBS containing 4 µg/mL of heparin were added. After 2 h of incubation at room temperature, the plate was washed and treated with a streptavidin–horseradish peroxidase conjugate in PBS (1:100) for 45 min. After the final wash, the chemiluminescence was quantified immediately after addition of 100 μL chemiluminescent substrate. Wells incubated with (bt)-VEGF-A165 served only as positive control (P), while wells not coated with NRP-1 were used as negative control (NS). Percentages of inhibition were calculated according to the following formula. % inhibition=100% −(S−NS)·100%/P−NS where: S—measured signal, NS—negative control signal, P—positive control signal. Test IC50 [µM] values (mean ± SD of three independent experiments) were determined by nonlinear regression analysis (log(inhibitor) vs. normalized response—variable slope) generated in GraphPad Prism 9.0.0 program (Graph Pad, San Diego, CA, USA).

[1] = assay type: physicochemical; details: pH 7.4
Method: (§1) Radioconjugate stability tests in 0.1 M PBS solution, 1 mM cysteine (Cys) solution, 1 mM histidine (His) solution and human serum (HS) were performed under rigorous conditions according to the procedure described in detail in our previous paper. In brief, isolated radioconjugates were dissolved in 50 µL PBS and appropriate volume of Cys, His and HS solution and then incubated at 37 °C. After the specified incubation time (depending on the half-life of a given radionuclide), which was up to 4–8 h for the ^44Sc-radiocompounds, 4 h for the ^68Ga-radiocompounds and about 6–14 days for the ^177Lu-radiocompounds, aliquots of solution were withdrawn from the mixture and the composition of the solution was analyzed on RP-HPLC in System 3 or 4 with gamma detection. The concentrations of Cys and His solutions were about 1000 times higher than that of the studied radiocompound. In the case of the radioconjugate stability study in HS, the concentration of the radiocompound was a maximum of 2–25 nmol/mL in 100% human serum. After incubation, the protein components were precipitated with a 2.5-fold volume excess of ethanol prior to RP-HPLC analysis, and then both the supernatant and precipitate radioactivity were measured with a Wizard gamma counter. The percentage of radioactivity remaining in the supernatant and bound by the precipitated serum protein components was calculated as the ratio of the radioactivity of the supernatant or the precipitate, respectively, to the sum of the radioactivity of the supernatant and the precipitate.

[2] = assay type: in vitro ADME, human
Method: as §1

physchem = assay type: physicochemical; details: for logP: pH 7.4, logP ± SD; for logP ± SD: pH 7.4
Method: The lipophilicity value, defined as the decimal logarithm (logP) of the partition coefficient (P), was tested in the system of two immiscible (but saturated with each other) phases: 0.1 M PBS solution, pH 7.4, and n-octanol, in three independent experiments. Partition coefficient was determined as a ratio of radioactivity of the organic (n-octanol) and aqueous (PBS solution) phases and was shown as the mean ± SD. The lipophilicity test was carried out as follows: the tested radiocompound dissolved in 10–20 µL of PBS was incubated and intensively mixed in an equal amount of these two phases. After centrifugation, radioactivity of appropriate amounts of the separated organic (500 µL) and aqueous (100 µL) phases were measured on the Wizard gamma counter. Differences in the volume of phases taken for measurement resulted from the very low radioactivity of organic phases and were included in the calculations. Additionally, to confirm the stability of the studied radiocompounds during the experiment, the RP-HPLC analyses of the aqueous phase were performed after each lipophilicity test.

Compound | logIC50 ± SD (VEGF-A165/NRP-1 complex) | binding affinity for NRP-1 (VEGF-A165/NRP-1 complex) | stability in PBS buffer [1] | stability in human serum [2] | other results
CC(C)C[C@@H](NC(=O)[C@H]1CCCN1C(=O)[C@H]1CCCN1C(=O)[C@H](N)CCCNC(=N)N)C(=O)N[C@H](Cc1c[nH]c2ccccc12)C(=O)N[C@@H](C(=O)N[C@H](C)C(=O)N[C@H](CCCCNC(=O)CN1CCN(CC(=O)O)CCN(CC(=O)O)CCN(CC(=O)O)CC1)C(=O)O)[C@H](C)O [Ga-3, ^DR7A-^DLys(DOTA-Ga)] (H-[dR][dP][dP][dL][dW][dT][dA][dK](DOTA)-OH) | – | – | – | – | IC50 (VEGF-A165/NRP-1 complex): > 100 µM
N=C(N)NCCCC[C@H](N)C(=O)NCCCC[C@H](N)C(=O)N[C@@H](CCN)C(=O)N1CCC[C@H]1C(=O)N[C@@H](CCCNC(=N)N)C(=O)O [K4R, Lys(hArg)-Dab-Pro-Arg] (H-K(hArg)[Dab]PR-OH) | −5.32 ± 0.12 | high binding affinity | – | – | –
CC(C)C[C@H](NC(=O)[C@H](Cc1c[nH]c2ccccc12)NC(=O)[C@@H](NC(=O)[C@H](C)NC(=O)CCCCCNC(=O)CN1CCN(CC(=O)O)CCN(CC(=O)O)CCN(CC(=O)O)CC1)[C@@H](C)O)C(=O)N1CCC[C@H]1C(=O)N1CCC[C@H]1C(=O)N[C@@H](CCCNC(=N)N)C(=O)O [Sc-1, Sc-DOTA-Ahx-A7R] ({DOTA-Ahx}-ATWLPPR-OH) | −4.65 ± 0.12 | high binding affinity | – | – | –
CC(C)C[C@H](NC(=O)[C@H](Cc1c[nH]c2ccccc12)NC(=O)[C@@H](NC(=O)[C@H](C)NC(=O)[C@@H](N)CCCCNC(=O)CN1CCN(CC(=O)O)CCN(CC(=O)O)CCN(CC(=O)O)CC1)[C@@H](C)O)C(=O)N1CCC[C@H]1C(=O)N1CCC[C@H]1C(=O)N[C@@H](CCCNC(=N)N)C(=O)O [Sc-1bis, Lys(DOTA-Sc)-A7R] (H-K(DOTA)ATWLPPR-OH) | −4.74 ± 0.01 | high binding affinity | – | – | –
N=C(N)NCCCC[C@H](N)C(=O)NCCCC[C@H](N)C(=O)N[C@@H](CCNC(=O)CCCCCNC(=O)CN1CCN(CC(=O)O)CCN(CC(=O)O)CCN(CC(=O)O)CC1)C(=O)N1CCC[C@H]1C(=O)N[C@@H](CCCNC(=N)N)C(=O)O [Sc-2, Lys(hArg)-Dab(Ahx-DOTA-Sc)-Pro-Arg] (H-K(hArg)[Dab]([Ahx-DOTA])PR-OH) | −4.73 ± 0.03 | high binding affinity | – | – | –
CC(C)C[C@@H](NC(=O)[C@H]1CCCN1C(=O)[C@H]1CCCN1C(=O)[C@H](N)CCCNC(=N)N)C(=O)N[C@H](Cc1c[nH]c2ccccc12)C(=O)N[C@@H](C(=O)N[C@H](C)C(=O)N[C@H](CCCCNC(=O)CN1CCN(CC(=O)O)CCN(CC(=O)O)CCN(CC(=O)O)CC1)C(=O)O)[C@H](C)O [Sc-3, ^DR7A-^DLys(DOTA-Sc)] (H-[dR][dP][dP][dL][dW][dT][dA][dK](DOTA)-OH) | – | very low binding affinity | – | – | –
CC(C)C[C@H](NC(=O)[C@H](Cc1c[nH]c2ccccc12)NC(=O)[C@@H](NC(=O)[C@H](C)NC(=O)CCCCCNC(=O)CN1CCN(CC(=O)O)CCN(CC(=O)O)CCN(CC(=O)O)CC1)[C@@H](C)O)C(=O)N1CCC[C@H]1C(=O)N1CCC[C@H]1C(=O)N[C@@H](CCCNC(=N)N)C(=O)O [^44Sc-1, [^44Sc]Sc-DOTA-Ahx-A7R, metal not drawn] ({DOTA-Ahx}-ATWLPPR-OH) | – | – | complete stability | insufficient stability | logP (physchem): -3.44 ± 0.02
CC(C)C[C@H](NC(=O)[C@H](Cc1c[nH]c2ccccc12)NC(=O)[C@@H](NC(=O)[C@H](C)NC(=O)[C@@H](N)CCCCNC(=O)CN1CCN(CC(=O)O)CCN(CC(=O)O)CCN(CC(=O)O)CC1)[C@@H](C)O)C(=O)N1CCC[C@H]1C(=O)N1CCC[C@H]1C(=O)N[C@@H](CCCNC(=N)N)C(=O)O [^44Sc-1bis, [^44Sc]Lys(DOTA-Sc)-A7R, metal not drawn] (H-K(DOTA)ATWLPPR-OH) | – | – | complete stability | insufficient stability | logP ± SD (physchem): −3.56 ± 0.06
N=C(N)NCCCC[C@H](N)C(=O)NCCCC[C@H](N)C(=O)N[C@@H](CCNC(=O)CCCCCNC(=O)CN1CCN(CC(=O)O)CCN(CC(=O)O)CCN(CC(=O)O)CC1)C(=O)N1CCC[C@H]1C(=O)N[C@@H](CCCNC(=N)N)C(=O)O [^44Sc-2, [^44Sc]Sc-DOTA-Ahx-K4R, metal not drawn] (H-K(hArg)[Dab]([Ahx-DOTA])PR-OH) | – | – | complete stability | insufficient stability | logP (physchem): -2.57 ± 0.02
CC(C)C[C@@H](NC(=O)[C@H]1CCCN1C(=O)[C@H]1CCCN1C(=O)[C@H](N)CCCNC(=N)N)C(=O)N[C@H](Cc1c[nH]c2ccccc12)C(=O)N[C@@H](C(=O)N[C@H](C)C(=O)N[C@H](CCCCNC(=O)CN1CCN(CC(=O)O)CCN(CC(=O)O)CCN(CC(=O)O)CC1)C(=O)O)[C@H](C)O [^44Sc-3, [^44Sc]^DR7A-^DLys(DOTA-Sc), metal not drawn] (H-[dR][dP][dP][dL][dW][dT][dA][dK](DOTA)-OH) | – | – | complete stability | insufficient stability | logP ± SD (physchem): −3.61 ± 0.03
CC(C)C[C@@H](NC(=O)[C@H]1CCCN1C(=O)[C@H]1CCCN1C(=O)[C@H](N)CCCNC(=N)N)C(=O)N[C@H](Cc1c[nH]c2ccccc12)C(=O)N[C@@H](C(=O)N[C@H](C)C(=O)O)[C@H](C)O [^DR7A, DArg-DPro-DPro-DLeu-DTrp-DThr-DAla, reference compound] (H-[dR][dP][dP][dL][dW][dT][dA]-OH; C-terminus assumed) | – | very low binding affinity | – | – | IC50 (VEGF-A165/NRP-1 complex): > 100 µM
ATWLPPR-OH [A7R, Ala-Thr-Trp-Leu-Pro-Pro-Arg, reference compound] | −4.74 ± 0.02 | high binding affinity | – | – | –
